Here are results for five compounds from publication PMC8157854, “Radiosynthesis and Evaluation of Talazoparib and Its Derivatives as PARP-1-Targeting Agents” (Biomedicines, 2021).

Data set [1] concerns intratumoral PAR. More on the design: method as in PMID 26652717. The conditions noted are these: at 2 and 8 h time points, partial recovery at 24 h; cited from earlier work.
Data set [2] relates to P-glycoprotein (P-gp). More on the design: method as in PMID 31770456. To be noted: cited from earlier work.
Data set [3] addresses PARP-1 (Homo sapiens, UniProt P09874). Description: Competitive binding assay with [3H]WC-DZ in U251MG cells. The conditions noted are these: for pseudoHill coefficient n′H: competitive binding vs [3H]WC-DZ in U251MG cells, Mean ± SEM, n = 3.
Source text: After the reaction was completed, the cells were washed once with ice-cold PBS and the bound radioactivity was counted and analyzed as described above.
Competitive dissociation constants (Ki values) were derived from the Cheng and Prussoff equation [24]: Ki=IC50/1+Lt/Kd
Data from competitive binding were transformed to determine the pseudo-Hill coefficient, n′H, using the following equation: logBs/B0−Bs=n^′HlogI−n^′HlogIC50, in which the negative of the Hill slope, n′H, can be readily calculated by a linear regression of plotting logBs/B0−Bs vs. logI , as we published [22, 25].
Data set [4] relates to PC-3 prostate tumors. Put plainly: Biodistribution of [18F]talazoparib in PC-3 tumor-bearing SCID mice. The conditions noted are these: for tumor uptake: PC-3 tumor. In kind it is in vivo. The text has this: 2.5. Xenograft Model The animal studies were approved by Washington University’s Institutional Animal Care and Use Committee (IACUC), Protocol #20-0214 approved 7 August 2020. The overall animal care was following The Guide for the Care and Use of Laboratory Animals from the National Research Council and the USDA Animal Care Resource Guide. Mature SCID mice from Charles River Laboratories were allowed to acclimate in an AALAC accredited housing facility for at least 1 week before tumor implantation for the biodistribution study. Male SCID mice (4 weeks old, n = 4/group, 2 groups), with 1 × 10^7 PC-3 prostate cancer cells implanted subcutaneously in the right shoulder grew for about 35 days before the radiotracer biodistribution studies. 2.6. Biodistribution Animals were intravenously injected with [^18F]talazoparib (120 µCi) in 10% ethanol/saline (100 µL) via the tail vein. At the specified time point (4 and 8 h), the mice were sacrificed, the blood, lungs, liver, spleen, kidneys, muscle, fat, heart, brain, bone, bone marrow, prostate, pancreas, and tumor were harvested, weighed, and counted in a γ-counter. The percentage injected dose per gram of tissue (%ID/g) was determined by decay correction of the [^18F]talazoparib for each sample and then normalized by the standard injected radiotracer dose and the sample weight.

Some results are limits rather than exact numbers.

One may read the Ki as the dissociation constant of the complex between target and ligand, obtained from inhibition or displacement. The low end stands for a stronger hold on the target, the high end for a looser hold on the target.

PARP-1, sequence (P09874 whole entry): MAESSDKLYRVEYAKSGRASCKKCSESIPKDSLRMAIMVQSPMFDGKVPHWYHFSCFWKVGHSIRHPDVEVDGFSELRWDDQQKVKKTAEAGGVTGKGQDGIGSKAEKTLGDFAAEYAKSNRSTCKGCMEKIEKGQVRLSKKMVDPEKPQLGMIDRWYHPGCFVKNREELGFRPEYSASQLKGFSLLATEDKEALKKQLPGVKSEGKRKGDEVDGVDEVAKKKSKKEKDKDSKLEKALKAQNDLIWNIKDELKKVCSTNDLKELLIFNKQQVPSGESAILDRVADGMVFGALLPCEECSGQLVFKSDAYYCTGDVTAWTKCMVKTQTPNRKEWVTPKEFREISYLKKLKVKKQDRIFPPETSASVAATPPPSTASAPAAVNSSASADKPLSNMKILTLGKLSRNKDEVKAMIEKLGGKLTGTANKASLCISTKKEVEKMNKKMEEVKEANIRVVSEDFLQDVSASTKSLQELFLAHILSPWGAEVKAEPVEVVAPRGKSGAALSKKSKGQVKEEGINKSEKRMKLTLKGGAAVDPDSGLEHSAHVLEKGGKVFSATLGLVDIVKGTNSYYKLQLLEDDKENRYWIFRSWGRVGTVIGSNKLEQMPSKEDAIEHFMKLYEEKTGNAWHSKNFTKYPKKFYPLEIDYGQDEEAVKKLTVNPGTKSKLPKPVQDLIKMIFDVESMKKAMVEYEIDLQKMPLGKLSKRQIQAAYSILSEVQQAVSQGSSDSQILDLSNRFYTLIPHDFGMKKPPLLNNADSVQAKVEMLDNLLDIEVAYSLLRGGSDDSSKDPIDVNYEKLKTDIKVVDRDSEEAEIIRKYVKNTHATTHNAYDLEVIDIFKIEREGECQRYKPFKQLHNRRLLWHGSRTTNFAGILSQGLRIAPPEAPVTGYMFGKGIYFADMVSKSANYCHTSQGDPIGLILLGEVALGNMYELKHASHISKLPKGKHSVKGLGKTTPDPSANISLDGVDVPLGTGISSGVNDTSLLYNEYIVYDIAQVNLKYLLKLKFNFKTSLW

In the case of `Cn1ncnc1[C@H]1c2n[nH]c(=O)c3cc(F)cc(c23)N[C@@H]1c1ccc(F)cc1` [3a″, (8S,9R)-5-Fluoro-8-(4-fluorophenyl)-9-(1-methyl-1H-1,2,4-triazol-5-yl)-2,7,8,9-tetrahydro-3H-pyrido[4,3,2-de]phthalazin-3-one], the “intratumoral PAR concentration” value in data set [1] is reported as “significantly attenuated”. For the same compound, the P-glycoprotein substrate entry in data set [2] was “substrate of P-glycoprotein (P-gp)”.

In the case of `Cn1ncnc1C1c2n[nH]c(=O)c3cc(F)cc(c23)NC1c1ccc(Br)cc1` (centres unmarked) [Compound 3b, 8-(4-bromophenyl)-5-fluoro-9-(1-methyl-1H-1,2,4-triazol-5-yl)-2,7,8,9-tetrahydro-3H-pyrido[4,3,2-de]phthalazin-3-one], in data set [3], the affinity, expressed as Ki, was 1.92 ± 0.41 nM and the “pseudoHill coefficient n′H” value is on record as 1.24 ± 0.24.

Regarding `Cn1ncnc1C1c2n[nH]c(=O)c3cc(F)cc(c23)NC1c1ccc(I)cc1` (centres unmarked) [Compound 3c, 8-(4-iodophenyl)-5-fluoro-9-(1-methyl-1H-1,2,4-triazol-5-yl)-2,7,8,9-tetrahydro-3H-pyrido[4,3,2-de]phthalazin-3-one], in data set [3], the Ki came to 1.73 ± 0.43 nM and the “pseudoHill coefficient n′H” value is given as 1.01 ± 0.20.

`CCN1CCC[C@H]1CNC(=O)c1c(O)c(Cl)cc(Cl)c1OC` [Raclopride, reference compound] yielded an inhibition constant (Ki) in data set [3] greater than 20000 nM. Further, the “displacement of [3H]WC-DZ” value in data set [3] (U251MG cells, 0.1 nM to 1 µM) is “No apparent displacement”.

For `Cn1ncnc1[C@H]1c2n[nH]c(=O)c3cc(F)cc(c23)N[C@@H]1c1ccc([18F])cc1` [[^18F]talazoparib], the tumor uptake in data set [4] (4 h post-injection, i.v., SCID mice) worked out at 3.78 ± 0.55 %ID/gram; in data set [4] (8 h post-injection, i.v., SCID mice) it was 4.52 ± 0.32 %ID/gram. Besides, the “uptake in liver, spleen, kidney, and pancreas” value in data set [4] (after 4 h, only slightly reduced at 8 h) was “High uptake”. Also, in data set [4] (at 4 and 8 h), the “uptake in bone marrow” value is recorded as “high”. Further, in data set [4] (blood, i.v., SCID mice), the “time for clearance of radioactivity from the blood” value was no more than 4 h. The brain uptake in data set [4] (brain, 4 h post-injection, i.v., SCID mice) is reported as 0.05 ± 0.01 %ID/gram.
